Patent US11839212B2, “Synergistic pesticidal compositions and methods for delivery of insecticidal active ingredients” (0903608 B.C. Ltd., priority 2018, dated 2023)
Read-outs that look alike come from different tables or passages of the source.

Experiments:
Test in all cases: Synergistic Growth Inhibition Assay (MIC and FIC index, 96-well, resazurin)
Assay type in all cases: cell-based
Fusarium oxysporum = conditions: Fusarium oxysporum, Compound B alone
Description: (§1) In some embodiments, the synergistic action between the pesticidal active ingredient, and the at least one C6-C10 (or alternatively C11 or C12) saturated or unsaturated aliphatic acid components of the pesticidal compositions according to embodiments of the present disclosure was tested using a Synergistic Growth Inhibition Assay, which is derived from and related to a checkerboard assay as is known in the art for testing of combinations of antimicrobial agents. In the Synergistic Growth Inhibition Assay used in accordance with some embodiments of the present disclosure, multiple dilutions of combinations of pesticidal active ingredient and at least one C6-C10 saturated or unsaturated aliphatic acid agents are tested in individual cells for inhibitory activity against a target pest or pathogenic organism. In one such embodiment, the combinations of pesticidal active ingredient and C6-C10 (or alternatively C11 or C12) saturated or unsaturated aliphatic acid agents may preferably be tested in decreasing concentrations. In a further such embodiment, the combinations of pesticidal active ingredient and C6-C10 (or alternatively C11 or C12) saturated or unsaturated aliphatic acid agents may be tested in increasing concentrations. These multiple combinations of the pesticidal active ingredient and at least one C6-C10 (or alternatively C11 or C12) saturated or unsaturated aliphatic acid agents may be prepared in 96-well microtiter plates. In one such embodiment, the Synergistic Growth Inhibition Assay then comprises rows which each contain progressively decreasing concentrations of the pesticidal active ingredient and one or more C6-C10 (or alternatively C11 or C12) saturated or unsaturated aliphatic acid agents to test for the MIC of the agents in combination at which growth of the target pest or pathogen is inhibited. Thus, each well of the microtiter plate is a unique combination of the two agents, at which inhibitory efficacy of the combination against the target pest or pathogen can be determined.
(§2) In one embodiment according to the present disclosure, for each row of microtiter cells in the Synergistic Growth Inhibition Assay, the FIC index is calculated from the lowest concentration of the pesticidal active ingredient and one or more C6-C10 saturated or unsaturated aliphatic acid agents necessary to inhibit growth of a target pest or pathogen. The FIC of each component is derived by dividing the concentration of the agent present in that well of the microtiter plate by the minimal inhibitory concentration (MIC) needed of that agent alone to inhibit growth of the target pest or pathogen. The FIC index is then the sum of these values for both agents in that well of the microtiter plate. […] Fractional inhibitory concentration indices may then used as measure of synergy. […] When the FIC index is equal to 1, the combination is additive.
(§3) Then, serial dilutions of these initial compositions in successive wells in the row of the microtiter plate were used to assay the pesticidal composition under the same conditions to determine the concentration of the composition combining the two agents corresponding to the microtiter well in which growth inhibition of the target pest or organism ceases.
Resazurin dye (also known as Alamar blue dye) was used as an indicator to determine the presence of growth or inhibition of growth of Fusarium oxysporum in the wells of the 96 well microtiter plates used in the exemplary Synergistic Growth Inhibition Assay. In addition to the color change of the resazurin dye in the presence of growth of the Fusarium oxysporum, an optical or visual examination of the microtiter well may also be made to additionally determine the presence of growth or inhibition of growth of the Fusarium oxysporum.

Alternaria solani = conditions: for MIC: Alternaria solani
Description: as §1, §2, §3
A culture of the representative fungal pathogen, namely Fusarium oxysporum, Botrytis cinerea, or Sclerotinia sclerotiorum, for example, is grown to exponential phase in potato dextrose broth (PDB).

Sclerotinia sclerotiorum = conditions: Sclerotinia sclerotiorum, […]
Description: as §1, §2, §3
(§4) Similarly to as described above, Resazurin was used as an indicator of growth or inhibition of growth of Sclerotinia sclerotiorum in the exemplary Synergistic Growth Inhibition Assay. In addition to the color change of the resazurin, an optical or visual examination of the microtiter well may also be made to additionally determine the presence of growth or inhibition of growth of the Sclerotinia sclerotiorum.

Botrytis cinerea = conditions: 48 hours incubation; for MIC: Botrytis cinerea, 48 h
Description: as §1, §2, §3
as §4, with “Botrytis cinerea” for “Sclerotinia sclerotiorum”, “Botrytis cinerea.” for “Sclerotinia sclerotiorum.”

[1] = 48 h, Table 30, 48 hours incubation, read-out: MIC (B)
[2] = 48 h, Table 32, 48 hours incubation, read-out: MIC (B)
[3] = Table 60, Compound B alone, 7 days incubation, read-out: MIC (B)
[4] = 48 h, Table 27, 48 hours incubation, read-out: MIC (B)
[5] = Compound B alone, 7 days incubation, read-out: MIC (B)
[6] = Compound A alone, 7 days incubation, read-out: MIC (A)

In the case of `CCCCC=CCC(=O)O` [3-Octenoic acid, 3-octenoic acid], the MIC (Fusarium oxysporum; 24 h, Table 3, 24 hour incubation, read-out: MIC(B)) is reported as 147 µg/mL, the MIC (Fusarium oxysporum; 24 h, Table 4, 24 hour incubation, read-out: MIC (B)) is reported as 147 µg/mL and the MIC (Fusarium oxysporum; [1]) is reported as 156 µg/mL. For the same compound, the MIC (Fusarium oxysporum; 48 h, Table 31, 48 hours incubation, read-out: MIC (B)) was 156 µg/mL, the MIC (Fusarium oxysporum; [2]) was 156 µg/mL and the MIC (Alternaria solani; [3]) was 156 µg/mL.

Compound `C=CCCCCCC(=O)O` [7-Octenoic acid] has an MIC (Fusarium oxysporum; [4]) of 312 µg/mL, an MIC (Fusarium oxysporum; [1]) of 312 µg/mL and an MIC (Fusarium oxysporum; [2]) of 156 µg/mL. The MIC (Alternaria solani; [5]) was 156 µg/mL.

In the case of `O=C(O)CCCCCCCCCO` [10-Hydroxydecanoic acid], the MIC (Alternaria solani; read-out: MIC (B)) is reported as 1000 µg/mL, the MIC (Sclerotinia sclerotiorum; read-out: MIC (B), Compound B alone, 7 days incubation) is reported as 500 µg/mL and the MIC (Botrytis cinerea; read-out: MIC (B), Table 51, Compound B alone) is reported as 250 µg/mL. The MIC (Botrytis cinerea; read-out: MIC (B), Table 59, Compound B alone) was 250 µg/mL.

For `CC/C=C\CC(=O)O` [Cis-3-hexenoic acid], the MIC (Alternaria solani; [5]) was 312 µg/mL and the MIC (Sclerotinia sclerotiorum; Table 34, Compound B alone, 7 days incubation, read-out: MIC (B)) was 156 µg/mL.

For `CCCCCCC(=O)O` [Heptanoic acid, heptanoic acid], the MIC (Alternaria solani; [5]) was 156 µg/mL, the MIC (Alternaria solani; [3]) was 156 µg/mL and the MIC (Sclerotinia sclerotiorum; Table 16, Compound B alone, incubation 7 days, read-out: MIC (B)) was 39.1 µg/mL. It also gave an MIC (Sclerotinia sclerotiorum; Table 17, Compound B alone, incubation 7 days, read-out: MIC (B)) of 39.1 µg/mL, an MIC (Sclerotinia sclerotiorum; Table 19, Compound B alone, incubation 7 days, read-out: MIC (B)) of 39.1 µg/mL and an MIC (Botrytis cinerea; Table 24, Compound B alone, read-out: MIC (B)) of 156 µg/mL.

`CC(C)CC(C)c1sccc1NC(=O)c1cn(C)nc1C(F)(F)F` (stereo not shown) [Penthiopyrad, reference compound] gave an MIC (Alternaria solani; [6]) of 500 µg/mL, an MIC (Sclerotinia sclerotiorum; [6]) of 500 µg/mL and an MIC (Botrytis cinerea; Table 56, Compound A alone, read-out: MIC (A)) of 250 µg/mL.

With `CO/C=C(/C(=O)OC)c1ccccc1COc1cccc(C(F)(F)F)n1` [Picoxystrobin, reference compound] the “MIC (A)” value (Alternaria solani; Compound A alone, 7 days incubation) was 500 µg/mL, the “MIC (A)” value (Alternaria solani; Table 60, Compound A alone, 7 days incubation) was 500 µg/mL and the “MIC (A)” value (Botrytis cinerea; Table 51, Compound A alone) was 250 µg/mL. The “MIC (A)” value (Botrytis cinerea; Table 52, Compound A alone) was 250 µg/mL.

Compound `OC(Cc1ccccc1Cl)(Cn1nc[nH]c1=S)C1(Cl)CC1` (stereo not shown) [Prothioconazole, reference compound] has an MIC (Alternaria solani; [6]) of 500 µg/mL, an MIC (Sclerotinia sclerotiorum; [6]) of 62.5 µg/mL and an MIC (Botrytis cinerea; Table 57, Compound A alone, read-out: MIC (A)) of 31.2 µg/mL.

`CCCC/C=C/CC(=O)O` [Trans-3-octenoic acid] gave an MIC (Fusarium oxysporum; [4]) of 156 µg/mL, an MIC (Fusarium oxysporum; [1]) of 156 µg/mL and an MIC (Fusarium oxysporum; [2]) of 156 µg/mL. For the same compound, the MIC (Alternaria solani; [5]) was 156 µg/mL and the MIC (Alternaria solani; [3]) was 156 µg/mL.
